How the values were obtained:
Assay in all cases: Kinase profiling
Assay type in all cases: biochemical
Details in all cases: mean n=2, read-out: % Activity with 10 µM RTx-303
CDK17/cyclinY(h) = molecular target: T1, CDK17/cyclinY(h) (Homo sapiens, UniProt Q00537)
T1 construct: purchased Eurofins (KinaseProfiler)
Procedure: (§1) Supplementary Fig. 8 Pharmacological profiling of RTx-303 against kinases.
(§2) % activity of the indicated kinases is shown following incubation with 10 µM RTx-303 in vitro.
(§3) Data represent mean (n = 2).

CDK14/cyclinY(h) = molecular target: T2, CDK14/cyclinY(h) (Homo sapiens, UniProt O94921)
T2 construct: purchased Eurofins (KinaseProfiler)
Procedure: as §1, §2, §3

MAPKAP-K3(h) = molecular target: T3, MAPKAP-K3(h) (Homo sapiens, UniProt Q16644)
T3 construct: purchased Eurofins (KinaseProfiler)
Procedure: as §1, §2, §3

CDK16/cyclinY(h) = molecular target: T4, CDK16/cyclinY(h) (Homo sapiens, UniProt Q00536)
T4 construct: purchased Eurofins (KinaseProfiler)
T4 sequence (Q00536 whole entry): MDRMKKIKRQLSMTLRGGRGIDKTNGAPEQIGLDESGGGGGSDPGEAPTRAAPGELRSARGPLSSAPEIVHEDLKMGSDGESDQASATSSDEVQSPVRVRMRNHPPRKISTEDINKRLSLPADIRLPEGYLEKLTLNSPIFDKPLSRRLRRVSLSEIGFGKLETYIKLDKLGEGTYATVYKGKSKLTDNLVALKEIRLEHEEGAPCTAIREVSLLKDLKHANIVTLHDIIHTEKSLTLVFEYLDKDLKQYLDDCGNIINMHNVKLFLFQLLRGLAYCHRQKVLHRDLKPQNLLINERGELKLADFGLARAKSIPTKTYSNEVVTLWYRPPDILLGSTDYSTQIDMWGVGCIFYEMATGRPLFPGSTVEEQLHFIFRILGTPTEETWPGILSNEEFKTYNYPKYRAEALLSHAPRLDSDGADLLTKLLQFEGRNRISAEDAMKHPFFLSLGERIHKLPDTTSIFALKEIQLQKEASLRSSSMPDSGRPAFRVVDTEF
T4 sequence (Q8ND76 whole entry partner): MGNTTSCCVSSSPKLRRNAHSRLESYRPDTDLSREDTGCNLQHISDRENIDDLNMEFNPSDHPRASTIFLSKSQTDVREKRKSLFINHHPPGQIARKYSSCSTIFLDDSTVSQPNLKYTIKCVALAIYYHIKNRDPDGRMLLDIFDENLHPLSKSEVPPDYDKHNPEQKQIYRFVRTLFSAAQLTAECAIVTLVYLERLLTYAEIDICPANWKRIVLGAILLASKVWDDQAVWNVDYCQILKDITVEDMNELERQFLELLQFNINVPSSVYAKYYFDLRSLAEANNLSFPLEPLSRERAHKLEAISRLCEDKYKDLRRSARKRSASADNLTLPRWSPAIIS
Procedure: as §1, §2, §3

PDHK4(h) = molecular target: T5, PDHK4(h) (Homo sapiens, UniProt Q16654)
T5 construct: purchased Eurofins (KinaseProfiler)
T5 sequence (Q16654 whole entry): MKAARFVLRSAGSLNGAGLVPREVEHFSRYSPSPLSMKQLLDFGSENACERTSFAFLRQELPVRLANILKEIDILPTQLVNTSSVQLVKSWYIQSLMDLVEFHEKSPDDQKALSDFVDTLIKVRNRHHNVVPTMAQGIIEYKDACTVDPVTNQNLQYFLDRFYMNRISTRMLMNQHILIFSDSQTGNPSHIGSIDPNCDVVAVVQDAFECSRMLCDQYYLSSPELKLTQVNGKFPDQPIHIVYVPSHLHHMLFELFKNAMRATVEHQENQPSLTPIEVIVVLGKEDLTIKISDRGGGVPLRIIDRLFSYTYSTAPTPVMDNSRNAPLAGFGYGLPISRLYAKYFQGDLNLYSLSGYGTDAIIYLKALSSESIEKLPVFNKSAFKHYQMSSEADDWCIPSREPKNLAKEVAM
Procedure: as §1, §2, §3

Cdc7/cyclinB1(h) = molecular target: T6, Cdc7/cyclinB1(h) (Homo sapiens, UniProt O00311)
T6 construct: purchased Eurofins (KinaseProfiler)
Procedure: as §1, §2, §3

CDK1/cyclinB(h) = molecular target: T7, CDK1/cyclinB(h) (Homo sapiens, UniProt P06493)
T7 construct: purchased Eurofins (KinaseProfiler)
Procedure: as §1, §2, §3

CDK2/cyclinA(h) = molecular target: T8, CDK2/cyclinA(h) (Homo sapiens, UniProt P24941)
T8 construct: purchased Eurofins (KinaseProfiler)
Procedure: as §1, §2, §3

A-Raf(h) = molecular target: T9, A-Raf(h) (Homo sapiens, UniProt P10398)
T9 construct: purchased Eurofins (KinaseProfiler)
Procedure: as §1, §2, §3

TSSK4(h) = molecular target: T10, TSSK4(h) (Homo sapiens, UniProt Q6SA08)
T10 construct: purchased Eurofins (KinaseProfiler)
Procedure: as §1, §2, §3

ChaK1(h) = molecular target: T11, ChaK1(h) (Homo sapiens, UniProt Q96QT4)
T11 construct: purchased Eurofins (KinaseProfiler)
Procedure: as §1, §2, §3

GRK6(h) = molecular target: T12, GRK6(h) (Homo sapiens, UniProt P43250)
T12 construct: purchased Eurofins (KinaseProfiler)
Procedure: as §1, §2, §3

CDK6/cyclinD3(h) = molecular target: T13, CDK6/cyclinD3(h) (Homo sapiens, UniProt Q00534)
T13 construct: purchased Eurofins (KinaseProfiler)
Procedure: as §1, §2, §3

CDK9/cyclin T1(h) = molecular target: T14, CDK9/cyclin T1(h) (Homo sapiens, UniProt P50750)
T14 construct: purchased Eurofins (KinaseProfiler)
Procedure: as §1, §2, §3

PEK(h) = molecular target: T15, PEK(h) (Homo sapiens, UniProt Q9NZJ5)
T15 construct: purchased Eurofins (KinaseProfiler)
Procedure: as §1, §2, §3

PI3KC2a(h) = molecular target: T16, PI3KC2a(h) (Homo sapiens, UniProt O00443)
T16 construct: purchased Eurofins (KinaseProfiler)
Procedure: as §1, §2, §3

VRK1(h) = molecular target: T17, VRK1(h) (Homo sapiens, UniProt Q99986)
T17 construct: purchased Eurofins (KinaseProfiler)
T17 sequence (Q99986 whole entry): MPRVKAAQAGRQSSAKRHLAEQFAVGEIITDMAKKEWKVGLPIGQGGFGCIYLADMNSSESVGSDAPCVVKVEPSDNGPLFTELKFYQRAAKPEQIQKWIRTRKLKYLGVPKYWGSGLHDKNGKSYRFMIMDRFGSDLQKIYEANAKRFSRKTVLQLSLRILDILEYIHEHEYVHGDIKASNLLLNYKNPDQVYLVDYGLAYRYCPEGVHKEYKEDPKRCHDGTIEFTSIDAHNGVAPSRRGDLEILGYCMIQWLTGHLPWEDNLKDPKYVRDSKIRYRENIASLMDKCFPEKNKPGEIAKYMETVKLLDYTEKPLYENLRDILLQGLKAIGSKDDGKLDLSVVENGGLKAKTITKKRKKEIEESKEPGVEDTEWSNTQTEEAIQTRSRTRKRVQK
Procedure: as §1, §2, §3

DYRK3(h) = molecular target: T18, DYRK3(h) (Homo sapiens, UniProt O43781)
T18 construct: purchased Eurofins (KinaseProfiler)
Procedure: as §1, §2, §3

PKCγ(h) = molecular target: T19, PKCγ(h) (Homo sapiens, UniProt P05129)
T19 construct: purchased Eurofins (KinaseProfiler)
Procedure: as §1, §2, §3

TAF1L(h) = molecular target: T20, TAF1L(h) (Homo sapiens, UniProt Q8IZX4)
T20 construct: purchased Eurofins (KinaseProfiler)
Procedure: as §1, §2, §3

PKCζ(h) = molecular target: T21, PKCζ(h) (Homo sapiens, UniProt Q05513)
T21 construct: purchased Eurofins (KinaseProfiler)
Procedure: as §1, §2, §3

PASK(h) = molecular target: T22, PASK(h) (Homo sapiens, UniProt Q96RG2)
T22 construct: purchased Eurofins (KinaseProfiler)
T22 sequence (Q96RG2 whole entry): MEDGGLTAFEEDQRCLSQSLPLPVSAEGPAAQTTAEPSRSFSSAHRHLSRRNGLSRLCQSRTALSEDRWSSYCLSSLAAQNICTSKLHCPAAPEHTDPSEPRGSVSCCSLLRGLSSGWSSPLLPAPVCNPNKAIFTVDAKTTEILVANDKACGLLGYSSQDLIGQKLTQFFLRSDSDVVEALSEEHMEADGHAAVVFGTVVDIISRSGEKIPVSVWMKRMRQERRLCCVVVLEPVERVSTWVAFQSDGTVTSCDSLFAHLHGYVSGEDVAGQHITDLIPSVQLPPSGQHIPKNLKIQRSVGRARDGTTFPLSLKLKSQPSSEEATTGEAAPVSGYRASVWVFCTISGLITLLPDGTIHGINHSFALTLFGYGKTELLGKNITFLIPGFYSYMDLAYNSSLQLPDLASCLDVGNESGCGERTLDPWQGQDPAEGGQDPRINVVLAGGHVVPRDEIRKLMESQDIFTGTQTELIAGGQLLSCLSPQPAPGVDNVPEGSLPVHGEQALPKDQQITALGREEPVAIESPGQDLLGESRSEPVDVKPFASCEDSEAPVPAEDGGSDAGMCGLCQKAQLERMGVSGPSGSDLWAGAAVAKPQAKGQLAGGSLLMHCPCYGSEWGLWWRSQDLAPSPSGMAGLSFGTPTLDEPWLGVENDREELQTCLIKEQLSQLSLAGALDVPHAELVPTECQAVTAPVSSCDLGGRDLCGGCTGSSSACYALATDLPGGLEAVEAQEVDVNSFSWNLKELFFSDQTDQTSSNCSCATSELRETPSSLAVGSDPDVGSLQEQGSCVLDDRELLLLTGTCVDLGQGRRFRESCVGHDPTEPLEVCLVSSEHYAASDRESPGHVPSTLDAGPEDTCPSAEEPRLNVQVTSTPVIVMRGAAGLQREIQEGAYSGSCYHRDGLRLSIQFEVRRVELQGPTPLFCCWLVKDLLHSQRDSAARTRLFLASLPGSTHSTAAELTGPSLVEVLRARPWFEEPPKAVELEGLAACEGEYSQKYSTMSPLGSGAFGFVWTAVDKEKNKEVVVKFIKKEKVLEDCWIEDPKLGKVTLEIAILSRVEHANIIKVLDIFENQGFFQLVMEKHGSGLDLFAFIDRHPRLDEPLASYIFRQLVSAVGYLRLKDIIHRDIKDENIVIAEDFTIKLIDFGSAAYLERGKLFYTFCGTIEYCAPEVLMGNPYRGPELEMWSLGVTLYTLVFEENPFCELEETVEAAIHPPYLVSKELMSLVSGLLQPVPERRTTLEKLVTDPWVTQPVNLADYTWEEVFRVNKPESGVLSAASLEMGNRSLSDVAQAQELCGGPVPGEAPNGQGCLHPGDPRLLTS
Procedure: as §1, §2, §3

ATM(h) = molecular target: T23, ATM(h) (Homo sapiens, UniProt Q13315)
T23 construct: purchased Eurofins (KinaseProfiler)
Procedure: as §1, §2, §3

MOK(h) = molecular target: T24, MOK(h) (Homo sapiens, UniProt Q9UQ07)
T24 construct: purchased Eurofins (KinaseProfiler)
T24 sequence (Q9UQ07 whole entry): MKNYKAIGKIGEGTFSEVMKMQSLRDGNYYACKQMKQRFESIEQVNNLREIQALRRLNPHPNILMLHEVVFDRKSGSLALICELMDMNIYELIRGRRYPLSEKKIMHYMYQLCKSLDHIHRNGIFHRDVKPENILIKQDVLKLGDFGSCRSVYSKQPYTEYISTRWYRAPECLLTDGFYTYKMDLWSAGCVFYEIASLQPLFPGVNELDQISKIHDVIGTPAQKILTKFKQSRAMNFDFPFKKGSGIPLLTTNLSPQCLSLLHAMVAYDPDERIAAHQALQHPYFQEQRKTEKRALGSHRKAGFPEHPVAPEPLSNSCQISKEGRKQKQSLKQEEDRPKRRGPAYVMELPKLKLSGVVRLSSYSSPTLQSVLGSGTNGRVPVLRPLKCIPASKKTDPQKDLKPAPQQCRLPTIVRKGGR
Procedure: as §1, §2, §3

CDK18/cyclinY(h) = molecular target: T25, CDK18/cyclinY(h) (Homo sapiens, UniProt Q07002)
T25 construct: purchased Eurofins (KinaseProfiler)
Procedure: as §1, §2, §3

eEF-2K(h) = molecular target: T26, eEF-2K(h) (Homo sapiens, UniProt O00418)
T26 construct: purchased Eurofins (KinaseProfiler)
Procedure: as §1, §2, §3

PKCα(h) = molecular target: T27, PKCα(h) (Homo sapiens, UniProt P17252)
T27 construct: purchased Eurofins (KinaseProfiler)
Procedure: as §1, §2, §3

TTBK2(h) = molecular target: T28, TTBK2(h) (Homo sapiens, UniProt Q6IQ55)
T28 construct: purchased Eurofins (KinaseProfiler)
Procedure: as §1, §2, §3

PKCβI(h) = molecular target: T29, PKCβI(h) (Homo sapiens, UniProt P05771)
T29 construct: purchased Eurofins (KinaseProfiler)
T29 sequence (P05771 whole entry): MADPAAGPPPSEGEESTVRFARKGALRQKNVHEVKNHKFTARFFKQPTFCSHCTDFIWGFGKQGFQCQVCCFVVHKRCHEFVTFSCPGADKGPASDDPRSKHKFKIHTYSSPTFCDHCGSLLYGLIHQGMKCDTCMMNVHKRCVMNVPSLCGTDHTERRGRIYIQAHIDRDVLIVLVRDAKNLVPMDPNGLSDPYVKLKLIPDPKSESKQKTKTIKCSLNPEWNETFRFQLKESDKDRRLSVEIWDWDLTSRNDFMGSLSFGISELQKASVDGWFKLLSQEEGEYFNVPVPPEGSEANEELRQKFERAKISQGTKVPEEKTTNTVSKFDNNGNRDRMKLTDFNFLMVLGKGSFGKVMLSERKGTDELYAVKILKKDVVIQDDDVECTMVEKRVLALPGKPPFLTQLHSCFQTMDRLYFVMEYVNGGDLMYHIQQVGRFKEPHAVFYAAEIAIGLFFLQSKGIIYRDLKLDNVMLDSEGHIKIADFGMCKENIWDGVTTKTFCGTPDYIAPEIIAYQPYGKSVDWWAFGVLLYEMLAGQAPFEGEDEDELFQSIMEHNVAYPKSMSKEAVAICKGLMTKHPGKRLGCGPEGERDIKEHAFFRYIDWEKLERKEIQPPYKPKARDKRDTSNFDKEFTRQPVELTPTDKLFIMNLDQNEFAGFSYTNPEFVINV
Procedure: as §1, §2, §3

TSSK2(h) = molecular target: T30, TSSK2(h) (Homo sapiens, UniProt Q96PF2)
T30 construct: purchased Eurofins (KinaseProfiler)
Procedure: as §1, §2, §3

CDK3/cyclinE(h) = molecular target: T31, CDK3/cyclinE(h) (Homo sapiens, UniProt Q00526)
T31 construct: purchased Eurofins (KinaseProfiler)
Procedure: as §1, §2, §3

TRB2(h) = molecular target: T32, TRB2(h) (Homo sapiens, UniProt Q92519)
T32 construct: purchased Eurofins (KinaseProfiler)
Procedure: as §1, §2, §3

MLK4(h) = molecular target: T33, MLK4(h) (Homo sapiens, UniProt Q5TCX8)
T33 construct: purchased Eurofins (KinaseProfiler)
Procedure: as §1, §2, §3

PIP4K2a(h) = molecular target: T34, PIP4K2a(h) (Homo sapiens, UniProt P48426)
T34 construct: purchased Eurofins (KinaseProfiler)
Procedure: as §1, §2, §3

GRK5(h) = molecular target: T35, GRK5(h) (Homo sapiens, UniProt P34947)
T35 construct: purchased Eurofins (KinaseProfiler)
Procedure: as §1, §2, §3

ATR/ATRIP(h) = molecular target: T36, ATR/ATRIP(h) (Homo sapiens, UniProt Q13535)
T36 construct: purchased Eurofins (KinaseProfiler)
Procedure: as §1, §2, §3

`[2H]C([2H])([2H])N(C(=O)Oc1c(N2CCN(C[C@H](O)CN(C)C)C2=O)cc(C(F)(F)F)cc1C(F)(F)F)c1ccc(F)cc1` [RTx-303] was tested, and the activity at 10 µM (CDK17/cyclinY(h)) was 110%, the activity at 10 µM (CDK14/cyclinY(h)) was 105% and the activity at 10 µM (MAPKAP-K3(h)) was 98%. It also gave an activity at 10 µM (CDK16/cyclinY(h)) of 102%, an activity at 10 µM (PDHK4(h)) of 93% and an activity at 10 µM (Cdc7/cyclinB1(h)) of 92%. It also gave an activity at 10 µM (CDK1/cyclinB(h)) of 105%, an activity at 10 µM (CDK2/cyclinA(h)) of 100% and an activity at 10 µM (A-Raf(h)) of 105%. The activity at 10 µM (TSSK4(h)) was 117%, the activity at 10 µM (ChaK1(h)) was 102% and the activity at 10 µM (GRK6(h)) was 90%. For the same compound, the activity at 10 µM (CDK6/cyclinD3(h)) was 101%, the activity at 10 µM (CDK9/cyclin T1(h)) was 119% and the activity at 10 µM (PEK(h)) was 104%. For the same compound, the activity at 10 µM (PI3KC2a(h)) was 79%, the activity at 10 µM (VRK1(h)) was 92% and the activity at 10 µM (DYRK3(h)) was 113%. For the same compound, the activity at 10 µM (PKCγ(h)) was 111%, the activity at 10 µM (TAF1L(h)) was 95% and the activity at 10 µM (PKCζ(h)) was 102%. The activity at 10 µM (PASK(h)) was 75%, the activity at 10 µM (ATM(h)) was 93% and the activity at 10 µM (MOK(h)) was 100%. The activity at 10 µM (CDK18/cyclinY(h)) was 89%, the activity at 10 µM (eEF-2K(h)) was 94% and the activity at 10 µM (PKCα(h)) was 103%. The activity at 10 µM (TTBK2(h)) was 99%, the activity at 10 µM (PKCβI(h)) was 103% and the activity at 10 µM (TSSK2(h)) was 102%. For the same compound, the activity at 10 µM (CDK3/cyclinE(h)) was 114%, the activity at 10 µM (TRB2(h)) was 98% and the activity at 10 µM (MLK4(h)) was 109%. The activity at 10 µM (PIP4K2a(h)) was 96%, the activity at 10 µM (GRK5(h)) was 103% and the activity at 10 µM (ATR/ATRIP(h)) was 77%.

— paper PMC12621202, “RTx-303, an Orally Bioavailable Polθ Polymerase Inhibitor That Potentiates PARP Inhibitors in BRCA Mutant Tumors” (Journal of Medicinal Chemistry, 2025)
